PMC9768205, “Pharmacological targeting of the mitochondrial calcium-dependent potassium channel KCa3.1 triggers cell death and reduces tumor growth and metastasis in vivo” (Cell Death & Disease, 2022)

Molecular target: T1, KCa3.1 (Homo sapiens, UniProt O15554)
T1 construct: gene KCNN4
Assay: whole-cell perforated patch clamp, block of DC-EBIO/ionomycin-activated current
Assay type: cell-based

T1 sequence (O15554 whole entry): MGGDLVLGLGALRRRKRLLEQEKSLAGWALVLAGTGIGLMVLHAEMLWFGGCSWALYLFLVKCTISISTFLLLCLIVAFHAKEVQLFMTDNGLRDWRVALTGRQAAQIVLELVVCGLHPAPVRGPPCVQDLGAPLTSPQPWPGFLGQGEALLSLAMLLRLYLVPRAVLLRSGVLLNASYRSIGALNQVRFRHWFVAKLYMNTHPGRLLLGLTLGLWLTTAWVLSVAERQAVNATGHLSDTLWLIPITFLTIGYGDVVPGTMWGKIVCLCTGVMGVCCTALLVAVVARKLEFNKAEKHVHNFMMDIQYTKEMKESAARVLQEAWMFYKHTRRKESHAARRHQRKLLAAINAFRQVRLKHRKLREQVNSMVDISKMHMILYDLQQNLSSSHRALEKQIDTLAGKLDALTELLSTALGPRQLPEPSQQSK

IC50: ~2 µM
SMILES: Clc1ccccc1C(c1ccccc1)(c1ccc(CCC[P+](c2ccccc2)(c2ccccc2)c2ccccc2)cc1)n1cccn1 (stereo not shown) [mitoTRAM-34, (3-(4-((2-chlorophenyl)(phenyl)(1H-pyrazol-1yl)methyl)phenyl)propyl)triphenylphosphonium iodide]
